# Measured values as given in US7572799B2, “Pyrazolo[4,3-d]pyrimidines as Phosphodiesterase Inhibitors” (Pfizer Inc, priority 2003, dated 2009).
# Where two headings read alike, the source gives them in different places.
# Molecular target: PDE-5 (UniProt O76074)
# Assay: In vitro PDE inhibitory activity against PDE5 (batch method or scintillation proximity assay)
# Assay type: biochemical, human
# Conditions: representative compounds
# Description: The compounds of the invention are inhibitors of cyclic guanylate monophosphate (cGMP)-specific phosphodiesterase type 5 (PDE-5 inhibitors).
# The required PDE enzymes can be isolated from a variety of sources, including human corpus cavernosum, human and rabbit platelets, human cardiac ventricle, human skeletal muscle and bovine retina, essentially by a modification of the method of Thompson, W J et al.; Biochemistry 18(23), 5228-5237, 1979, as described by Ballard S A et al.; J. Urology 159(6), 2164-2171, 1998. In particular, cGMP-specific PDE5 and cGMP-inhibited cAMP PDE3 can be obtained from human corpus cavernosum tissue, human platelets or rabbit platelets; cGMP-stimulated PDE2 was obtained from human corpus cavernosum; calcium/calmodulin (Ca/CAM)-dependent PDE1 from human cardiac ventricle; cAMP-specific PDE4 from human skeletal muscle; and photoreceptor PDE6 from bovine retina. Phosphodiesterases 7-11 can be generated from full length human recombinant clones transfected into SF9 cells.
# Assays can be performed either using a modification of the “batch”method of Thompson W J and Appleman M M; Biochemistry 10(2), 311-316, 1971, essentially as described by Ballard S A et al.; J. Urology 159(6), 2164-2171, 1998, or using a scintillation proximity assay for the direct detection of [^3H]-labelled AMP/GMP using a modification of the protocol described by Amersham plc under product code TRKQ7090/7100. In summary, for the scintillation proximity assay the effect of PDE inhibitors was investigated by assaying a fixed amount of enzyme in the presence of varying inhibitor concentrations and low substrate, (cGMP or cAMP in a 3:1 ratio unlabelled to [^3H]-labeled at a concentration of ˜⅓ Km, or less) such that IC50≅Ki. The final assay volume was made up to 100 μl with assay buffer [20 mM Tris-HCl pH 7.4, 5 mM MgCl2, 1 mg/ml bovine serum albumin]. Reactions were initiated with enzyme, incubated for 30-60 min at 30° C. to give <30% substrate turnover and terminated with 50 μl yttrium silicate SPA beads (containing 3 mM of the respective unlabelled cyclic nucleotide for PDEs 9 and 11).
Structure (SMILES),IC50 (read-out: IC50) [nM],IC50 [nM]
CCOCCn1nc(C(=O)O)c2nc(N(C)CC)nc(Nc3cc(C)ccn3)c21 [Example 96],3.65,
"CCCOCCn1nc(C(=O)NS(C)(=O)=O)c2nc(N(CC)CC)nc(Nc3cc(C)ccn3)c21 [Example 183, 5-(Diethylamino)-7-[(4-methylpyridin-2-yl)amino]-N-(methylsulfonyl)-1-(2-propoxyethyl)-1H-pyrazolo[4,3-d]pyrimidine-3-carboxamide]",0.383,
CCOCCn1nc(C(=O)O)c2nc(N(C)C(C)C)nc(Nc3cc(CC)ccn3)c21 [Example 36],0.708,
CCOCCn1nc(C(=O)O)c2nc(N(C)C(C)C)nc(Nc3cccc(F)c3)c21 [Example 88],21.3,
CCOCCn1nc(C(=O)O)c2nc(N(C)C)nc(Nc3cc(C)c(C)cn3)c21 [Example 41],3.2,
CCOCCn1nc(C(=O)O)c2nc(N(C)CC)nc(Nc3cc(C)nc(C)n3)c21 [Example 74],100,
CCOCCn1nc(C(=O)NS(C)(=O)=O)c2nc(N(C)CC)nc(Nc3cc(CO)ccn3)c21 [Example 153],0.398,
CCN(CC)c1nc(Nc2cc(C)ccn2)c2c(n1)c(C(=O)NS(C)(=O)=O)nn2CCOCCCF [Example 177],0.17,
"CCOCCn1nc(C(=O)NS(C)(=O)=O)c2nc(N(C)C)nc(Nc3cc(C)ccn3)c21 [Example 114, N-[5-(Dimethylamino)-1-(2-ethoxyethyl)-7-(4-methylpyridin-2-ylamino)-1H-pyrazolo[4,3-d]pyrimidine-3-carbonyl]methanesulfonamide]",4.83,
CCOCCn1nc(C(=O)O)c2nc(N(CC)CC)nc(Nc3ccc(F)c(C)c3)c21 [Example 86],0.063,
CCCN(C)c1nc(Nc2cc(C)ccn2)c2c(n1)c(C(=O)O)nn2CCOCC [Example 15],1.84,
CO[C@H](C)Cn1nc(C(=O)O)c2nc(N(C)C)nc(Nc3cc(C)ccn3)c21 [Example 64],100,
CCOCCn1nc(C(=O)O)c2nc(N(C)C)nc(Nc3cc(CC)ccn3)c21 [Example 37],23.9,
CCOCCn1nc(C(=O)OCC)c2nc(N3CCN[C@H](C)C3)nc(Nc3cc(C)ccn3)c21 [Example 8],3.82,
CCOCCn1nc(C(=O)O)c2nc(N(C)CC)nc(Nc3cc(C)c(C)cn3)c21 [Example 40],0.167,
CCN(CC)c1nc(Nc2cc(C)ccn2)c2c(n1)c(C(=O)NS(C)(=O)=O)nn2CCOCC(F)F [Example 182],1.4,
CCOCCn1nc(C(=O)O)c2nc(N(C)C)nc(NC3CC3)c21 [Example 35],,100
"CCN(C)c1nc(Nc2cc(C)ccn2)c2c(n1)c(C(=O)NS(C)(=O)=O)nn2CCO [Example 185, 5-[Ethyl(methyl)amino]-1-(2-hydroxyethyl)-7-[(4-methylpyridin-2-yl)amino]-N-(methylsulfonyl)-1H-pyrazolo[4,3-d]pyrimidine-3-carboxamide]",11.5,
"CCOCCn1nc(C(=O)OC)c2nc(N(C)C(C)C)nc(Nc3cc(C)ccn3)c21 [Example 1, Methyl 1-(2-ethoxyethyl)-5-(N-isopropyl-N-methylamino)-7-(4-methylpyridin-2-ylamino)-1H-pyrazolo[4,3-d]pyrimidine-3-carboxylate]",0.075,
CCN(C)c1nc(Nc2cc(C)ccn2)c2c(n1)c(C(=O)NS(C)(=O)=O)nn2CCOC [Example 162],3.1,
CCOCCn1nc(C(=O)O)c2nc(N(C)C(C)C)nc(Nc3cc(C)ncn3)c21 [Example 123],0.628,
CCN(C)c1nc(Nc2ccc(F)c(C)c2)c2c(n1)c(C(=O)O)nn2CCOCC(F)(F)F [Example 137],0.068,
CCOCCn1nc(C(=O)O)c2nc(N(C)C(C)C)nc(Nc3ccncn3)c21 [Example 28],11.6,
CCCOCCn1nc(C(=O)NS(C)(=O)=O)c2nc(N(C)CC)nc(Nc3cc(C)ccn3)c21 [Example 171],1.21,
CCOCCn1nc(C(=O)OC)c2nc(N3CCN[C@H](C)C3)nc(Nc3cc(C)ccn3)c21 [Example 3],5.01,

Structure (SMILES),IC50 (read-out: IC50) [nM],IC50 [nM]
CCOCCn1nc(C(=O)O)c2nc(N(C)C(C)C)nc(Nc3ccc(F)c(C)c3)c21 [Example 85],0.055,
Cc1cc(Nc2nc(N(C)C(C)C)nc3c(C(=O)O)nn(CCOCC(F)(F)F)c23)ccc1F [Example 139],0.071,
CCOCCn1nc(C(=O)OC)c2nc(N3C[C@@H]4C[C@H]3CN4)nc(Nc3cc(C)ccn3)c21 [Example 4],2.62,
CCOCCn1nc(C(=O)O)c2nc(N(C)C(C)C)nc(Nc3cccc(C)n3)c21 [Example 99],2.45,
CCOCCn1nc(C(=O)O)c2nc(N(C)C(C)C)nc(Nc3cc(F)ccc3F)c21 [Example 92],41,
Cc1ccnc(Nc2nc(N(C)C)nc3c(C(=O)O)nn(CC4CCOCC4)c23)c1 [Example 57],,100
CCOCCn1nc(C(=O)O)c2nc(N(C)C)nc(Nc3ccnc(OC)n3)c21 [Example 71],2.46,
CCOCCn1nc(C(=O)O)c2nc(N(C)CC)nc(Nc3cccc(C)n3)c21 [Example 38],16.7,
CCOCCn1nc(C(=O)O)c2nc(N(C)CCOC)nc(Nc3cc(C)ccn3)c21 [Example 17],2.93,
CCOCCn1nc(C(=O)O)c2nc(N(C)C(C)C)nc(N[C@@H]3CCOC3)c21 [Example 67],,100
CCOCCn1nc(C(=O)O)c2nc(N(C)CC)nc(Nc3ccnc(C)n3)c21 [Example 73],52.3,
CCOCCn1nc(C(=O)O)c2nc(N[C@@H](C)CC)nc(Nc3cc(C)ccn3)c21 [Example 55],2.6,
CCN(C)c1nc(Nc2cc(C)ccn2)c2c(n1)c(C(=O)O)nn2CCOCC1CC1 [Example 109],9.7,
CCOCCn1nc(C(=O)O)c2nc(N(C)CC(C)C)nc(Nc3cc(C)ccn3)c21 [Example 16],0.51,
CCOCCn1nc(C(=O)O)c2nc(N(C)CC)nc(Nc3cc(C)ncn3)c21 [Example 120],1.12,
"CO[C@H](C)Cn1nc(C(=O)O)c2nc(N(C)C(C)C)nc(Nc3cc(C)ccn3)c21 [Example 112, (2′R)-5-(N-Isopropyl-N-methylamino)-1-(2′-methoxypropyl)-7-(4-methylpyridin-2-ylamino)-1H-pyrazolo[4,3-d]pyrimidine-3-carboxylic acid]",14.7,
CCOCCn1nc(C(=O)O)c2nc(N(CC)CCOC)nc(Nc3cc(C)ccn3)c21 [Example 52],3.4,
CCCN(C)c1nc(NC2CCCCC2)c2c(n1)c(C(=O)O)nn2CCOCC [Example 30],,35.8
CCOCCn1nc(C(=O)O)c2nc(N(C)C)nc(NC3CCOCC3)c21 [Example 82],55.1,
CCOCCn1nc(C(=O)OC)c2nc(N(C)CC)nc(Nc3cc(C)ccn3)c21 [Example 2],0.201,
CCN(CC)c1nc(Nc2ccc(F)c(C)c2)c2c(n1)c(C(=O)O)nn2CCOCC(F)(F)F [Example 140],0.099,
"CCOCCn1nc(C(=O)OCCN(C)C)c2nc(N(C)C)nc(Nc3cc(C)ccn3)c21 [Example 10, 2-(Dimethylamino)ethyl 5-dimethylamino-1-(2-ethoxyethyl)-7-(4-methylpyridin-2-ylamino)-1H-pyrazolo[4,3-d]pyrimidine-3-carboxylate]",1.86,
Cc1ccnc(Nc2nc(N(C)C(C)C)nc3c(C(=O)NS(C)(=O)=O)nn(CCOCCCF)c23)c1 [Example 176],0.17,
CCOCCn1nc(-c2nnn[nH]2)c2nc(N(C)C(C)C)nc(Nc3cc(C)ccn3)c21 [Example 79],0.332,
CCOCCn1nc(C(=O)O)c2nc(N(C)C)nc(Nc3cccc(C)n3)c21 [Example 39],57.2,
